Measurements from ChEMBL document CHEMBL1144247, “Fluorescent polycyclic ligands for nitric oxide synthase (NOS) inhibition” (Bioorg Med Chem, 2008).

Experiment: Inhibition of NOS in Sprague-Dawley rat brain by oxyhaemoglobin assay
Compound `N#Cc1c2ccccc2cn1C12CC3CC(CC(C3)C1)C2` has an IC50 of 0.291 µM and a pIC50 of 4.52.
Work on `O=C(NC12CC3CC(CC(C3)C1)C2)c1n[nH]c2ccccc12` yielded an IC50 of 2.53 µM and a pIC50 of 3.52.
With `CNc1ccccc1C(=O)NC12CC3CC(CC(C3)C1)C2` the pIC50 was 2.53.
With `CNc1ccccc1C(=O)OC12C3C4CC5C6C4C1C6C1(OCCCN12)C53` (centres undefined) the pIC50 was 2.93.
Work on `O=C(O)c1n[nH]c2ccccc12` yielded an IC50 of 9.65 µM and a pIC50 of 3.28.
In the case of `N#CSc1c2ccccc2cn1C12CC3CC(CC(C3)C1)C2`, the pIC50 is reported as 3.88.
`O=[N+]([O-])c1c2ccccc2cn1C12CC3CC(CC(C3)C1)C2` gave a pIC50 of 3.74.
`O=C(OC12C3C4CC5C6C4C1C6C1(OCCCN12)C53)c1n[nH]c2ccccc12` (centres undefined) gave an IC50 of 0.35 µM and a pIC50 of 4.22.
With `N=C(N)NN` [PIMAGEDINE] the IC50 was 19.4 µM and the pIC50 was 2.72.
